Experiment: gradient 5% acetonitrile 3 min, to 50% in 2 min, to 85% in 15 min, held 3 min, 100 µL/min
Conditions: column: Zorbax Extend-C18 2.1 x 50 mm; eluents: water / acetonitrile, 0.1% formic acid
Outline: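 Each retention time is based on an adduct peak selected computationally and verified by manual inspection. Measurements used HPLC–quadrupole time-of-flight mass spectrometry in positive and negative ionization mode on mixtures of ~100 pure standards. Chromatography ran on a Zorbax Extend-C18 column (2.1 × 50 mm, 1.8 μm) at 100 μL/min with water and acetonitrile, each containing 0.1% formic acid, and dead and dwell volumes of 40 μL and 900 μL.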

Row | SMILES | RP-LC retention time
1 | COc1cccc(CN2CCC3(CC2)C(OC)CN3c2cccc(F)c2)n1 (configuration not stated) | 777 s
2 | O=C(Cc1cccs1)N1CCN(C(=O)c2cc3cc(Br)ccc3[nH]2)CC1 | 866 s
3 | CC(C)n1cc(S(=O)(=O)Nc2ccc(F)cc2)c2cccnc21 | 869 s
4 | CCOC(=O)c1c(C)oc2ncnc(NCc3ccc4c(c3)OCO4)c12 | 1050 s
5 | CC(=O)c1ccc(N2C(=O)Cn3cccc3C2C(=O)NC2CCC(C)CC2)cc1 (configuration not stated) | 869 s
6 | Cc1ccc(C(O)Cn2ccn3nc(-c4cccs4)cc3c2=O)cc1 (configuration not stated) | 893 s
7 | CCOC(=O)C1=C(CN2CCC(Cc3ccccc3)CC2)NC(=O)NC1c1cccs1 (configuration not stated) | 884 s
8 | CC(C)C(=O)Nc1ccc2c(c1)N(C(=O)c1cccs1)CCC2 | 819 s
9 | Cc1ccc(-c2noc(C3CC3)n2)cc1S(=O)(=O)N1CCC(C(=O)Nc2nccs2)CC1 | 937 s
10 | CSc1cccc(NC(=O)C2CCCN(c3ncnc4c3nc3n4CCCCC3)C2)c1 (configuration not stated) | 866 s
11 | CCCNc1cc(N2CCCC(CCC(=O)Nc3ccc(OCC)cc3)C2)ncn1 (configuration not stated) | 728 s
12 | Cc1cc2c(=O)n(CC(=O)NCc3ccccc3F)ccc2s1 | 732 s
13 | O=C1CCCCC(Cc2ccccc2)(C(=O)Nc2cccnc2)N1 (configuration not stated) | 623 s
14 | COc1ccc2nc(C(=O)NC3CCCCCC3)cn2n1 | 878 s
15 | CC(NC(=O)c1c(O)c2sccc2n(Cc2ccccc2)c1=O)c1ccccc1 (configuration not stated) | 1350 s
16 | CN(CC#N)C(=O)c1cc2c(Cl)ccc3c2n1CCO3 | 865 s
17 | O=C(c1cnn2cccnc12)N1CCCC1c1ccc(Cl)cc1 (configuration not stated) | 766 s
18 | COc1ccc(NC(=O)N(C)CCc2noc(COc3ccc(F)cc3)n2)cc1 | 692 s
19 | O=C(Cc1csc(NC(=O)c2ccco2)n1)Nc1nc2ccc([N+](=O)[O-])cc2s1 | 797 s

Row | SMILES | RP-LC retention time
20 | CCC(=O)Nc1ccc(S(=O)(=O)NCCOc2ccc3c(c2)OCO3)cc1 | 830 s
21 | Cc1nc(-c2csc(S(=O)(=O)N3CCCC(C(=O)NCCc4sccc4C)C3)c2)no1 (configuration not stated) | 932 s
22 | Cc1ccc(C)c(-c2cn3ccn(-c4cccc(F)c4)c(=O)c3n2)c1 | 892 s
23 | CC(=O)N(Cc1nn(C)c2c1CN(S(=O)(=O)c1ccc(F)cc1F)CC2)c1ccccc1 | 808 s
24 | COc1ccc(NC(=O)C2CCN(c3cc(N4CCCC4)ncn3)CC2)cc1Cl | 677 s
25 | Cc1ccc(F)cc1NC(=O)c1cc(C2CC2)n2nccc2n1 | 1140 s
26 | CCn1cc(C(=O)NCc2cccc(Br)c2)c2cccnc21 | 854 s
27 | O=C(CC1C=Cc2ccccc2N1C(=O)c1ccccc1)c1ccccc1 (configuration not stated) | 1270 s
28 | CCCc1ccc(C(=O)CC2(O)C(=O)Nc3ccccc32)cc1 (configuration not stated) | 831 s
29 | O=C(NC1CCCCC1)C1CCN(C(=O)C2Sc3ccccc3NC2=O)CC1 (configuration not stated) | 732 s
30 | Cn1nccc1-c1cccc(-c2noc(CNC(=O)c3ccco3)n2)c1 | 733 s
31 | CCOC(=O)c1c(S(=O)(=O)N2CCC(C(=O)NCc3ccccc3Cl)CC2)c(C)n(C)c1C | 862 s
32 | COc1ccc(N2CC(c3nc(-c4cccc(Cl)c4)no3)CC2=O)cc1 (configuration not stated) | 973 s
33 | CCCOc1ccc(S(=O)(=O)NCC2CCN(C(=O)c3ccccc3F)CC2)cc1C | 598 s
34 | COc1cccc(-c2c(C(=O)O)nnn2-c2ccc3c(c2)OCCO3)c1 | 744 s
35 | Cc1ccc(NC(=O)Cn2c(C)nc3c(sc4nc(-c5ccccc5)ccc43)c2=O)c(C)c1 | 1090 s
36 | O=C(c1ccc(Br)o1)N1CCC(c2cnn(-c3cccc(F)c3)c2)CC1 | 1000 s
37 | O=c1c2sccc2n(Cc2nc(-c3ccc(F)c(Br)c3)no2)c(=O)n1-c1ccccc1 | 961 s

Reference: the METLIN SMRT retention time set (Domingo-Almenara et al. 2019)
